“And” between values parts separate entries of the source, which are not always exact repeats. Identical values can stand only once. Bridge positions count the residues as written; N and C are the ends. Square brackets hold non-standard residues; d marks the D form. Ends that are not written are not given here. Peptide text beside a SMILES is read from it. Phe(4-F) = N[C@@H](Cc1ccc(F)cc1)C(=O)O; 2Nal = N[C@@H](Cc1ccc2ccccc2c1)C(=O)O; d2Nal = N[C@H](Cc1ccc2ccccc2c1)C(=O)O; Dap = NC[C@H](N)C(=O)O
Key:
Keap1-Nrf2 interaction = Keap1-Nrf2 interaction (Homo sapiens, UniProt Q14145); test: Fluorescence anisotropy-based competition assay, inhibition of Keap1-Nrf2 peptide interaction; type: binding
Keap1-Nrf2 interaction, sequence (Q14145 321-609 limits assumed): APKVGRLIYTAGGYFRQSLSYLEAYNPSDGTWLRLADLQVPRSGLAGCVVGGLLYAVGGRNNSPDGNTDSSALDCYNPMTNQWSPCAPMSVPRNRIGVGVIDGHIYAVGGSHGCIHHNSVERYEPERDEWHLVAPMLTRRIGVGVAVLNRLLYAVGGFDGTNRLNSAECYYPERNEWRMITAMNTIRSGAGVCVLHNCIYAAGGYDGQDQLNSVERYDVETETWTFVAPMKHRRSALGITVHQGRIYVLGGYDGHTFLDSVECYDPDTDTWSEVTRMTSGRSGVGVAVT
Protocol: The percentage of inhibition was calculated from the fluorescence anisotropy decrease by using equation % Inhibition=(FAmax−FAobs)/(FAmax−FAmin)×100% and plotted against the inhibitor concentration.

HeLa cells = test: Cellular (cytosolic) uptake of NF-labeled peptides by flow cytometry (MFI); type: cell-based; details: for Cellular Uptake (MFI^NF, %), cytosolic delivery efficiency of CPPs without beta-hairpin moiety: relative to CPP 1 (100%), mean ± S.D. of three independent experiments; for Cellular Uptake (MFINF, %) / Cellular entry / delivery efficiency (in words): flow cytometry; for Cellular Uptake (MFINF, %): relative to CPP1 (100%); for Improvement of cytosolic entry efficiency relative to BH4: D-amino acid diastereomers of BH4; for Cellular Uptake (MFI^NF, %) of β-hairpin transporters: 5 μM peptide
Protocol: HeLa cells were treated with 5 μM peptide for 2 h, and their cell uptake efficiencies were determined by flow cytometry analysis. The mean fluorescence intensity (MFI) values derived from cytometry analyses reflect the amounts of peptides inside the cytosol and nucleus, whereas any NF-labeled peptide entrapped inside the acidic endosomes are invisible under the experimental conditions (Id.; Qian, Z et al. Chem. Commun. 2015, 51, 2162-2165).
The binding affinity of BH23 (unlabeled) for the Grb2 SH2 domain was then determined by examining its ability to compete with the FAM-labeled ligand for binding to the Grb2 SH2 domain by fluorescence polarization (FP). […] Next, BH23 was labeled with NF at the Asn side chain through a miniPEG-Lys linker and its cytosolic entry efficiency was quantitated by treating HeLa cells with 5 μM of the labeled peptide for 2 h before flow cytometry analysis. […] BH23 was also similarly labeled at the Asn side chain with FAM and its entry into HeLa cells was examined by live-cell confocal microscopy. […] Two control peptides (BH24 and BH25) were also prepared for cellular assays. BH24 and BH25 are structurally similar to BH23, except that BH24 contained a Tyr instead of the pY residue (FIG. 11), whereas in BH25 the two hydrophobic residues critical for cellular uptake (Nal-arg) were replaced with Ala-ala (FIG. 12).
BHT1 and BHT2 were labeled with naphthofluorescein (NF) and their cytosolic uptake into HeLa cells was determined by flow cytometry (Table 10).
Additional cell penetrating compounds were prepared and tested for cytosolic delivery. In these compounds there was no beta-hairpin turn creating moiety.

[1] = HeLa cells, 5 μM NF-labeled peptide, 2 h
[2] = HeLa cells, 2 h, DMEM with 10% FBS and 1% ABS, relative to CPP9 (100%)

| Molecule | Cellular Uptake (MFI^NF, %), cytosolic delivery efficiency of CPPs without beta-hairpin moiety (HeLa cells) [%] | other results |
| --- | --- | --- |
| CC(C)C[C@@H]1NC(=O)[C@H](CCC(N)=O)NC(=O)[C@H](Cc2ccccc2)NC(=O)[C@H](CCCNC(=N)N)NC(=O)[C@H](CCCNC(=N)N)NC(=O)[C@@H]2CCCN2C(=O)[C@H]2CCCN2C(=O)[C@@H](CCCNC(=N)N)NC(=O)[C@H](Cc2ccc3ccccc3c2)NC(=O)[C@H](Cc2ccccc2)NC(=O)[C@H](Cc2ccccc2)NC(=O)[C@H](CCC(=O)O)NC(=O)CNC(=O)[C@H]([C@@H](C)O)NC(=O)[C@H](CCC(=O)O)NC(=O)[C@H](C)NC(=O)[C@H](CC(N)=O)NC1=O [BH14, cyclo(F-F-Φ-r-p-P-R-R-F-Q-L-N-A-E-T-G-E)] (cyclo(FF[2Nal][dR][dP]PRRFQLNAETGE)) |  | Decrease of affinity for Keap1 / inhibition potency (Keap1-Nrf2 interaction; Asn-Ala analogues vs Asp-Pro parents (BH13, BH15, BH17), BH19: truncation of cargo to 6-aa): ~10 fold; IC50 (Keap1-Nrf2 interaction; FA competition with fluorescently labeled Nrf2 peptide and Keap1): 1400 ± 130 nM |
| 268 (FFFRRRRRQ; cyclic) [Peptide 268] | 145 ± 27 |  |
| cyclo(A-A-F-Φ-R-p-P-r-R-F-A-A-A-Q)-miniPEG-K(NF) (cyclo(AAF[2Nal]R[dP]P[dR]RFAAAQ); not fully specified (residue 14); printed as cyclo(A-A-F-Φ-R-p-P-r-R-F-A-A-A-Q)-miniPEG-K(NF)) [BH5] |  | Cellular Uptake (MFINF, %) (HeLa cells; [1]): 102 ± 45%; Improvement of cytosolic entry efficiency relative to BH4 (HeLa cells; HeLa cells): only minor effect |
| cyclo(A-A-F-Φ-R-p-P-R-R-R-A-A-A-Q)-miniPEG-K(NF) (cyclo(AAF[2Nal]R[dP]PRRRAAAQ); not fully specified (residue 14); printed as cyclo(A-A-F-Φ-R-p-P-R-R-R-A-A-A-Q)-miniPEG-K(NF)) [BH1] |  | Cellular Uptake (MFINF, %) (HeLa cells; [1]): 66 ± 12% |
| cyclo(S-A-S-F-Φ-r-p-P-R-R-F-S-A-S-A-Q)-miniPEG-K(NF) (cyclo(SASF[2Nal][dR][dP]PRRFSASAQ); not fully specified (residue 16); printed as cyclo(S-A-S-F-Φ-r-p-P-R-R-F-S-A-S-A-Q)-miniPEG-K(NF)) [BH11] |  | Cellular Uptake (MFINF, %) (HeLa cells; [1]): 245 ± 16% |
| cyclo(A-A-F-φ-R-p-P-R-R-F-A-A-A-Q)-miniPEG-K(NF) (cyclo(AAF[d2Nal]R[dP]PRRFAAAQ); not fully specified (residue 14); printed as cyclo(A-A-F-φ-R-p-P-R-R-F-A-A-A-Q)-miniPEG-K(NF)) [BH8] |  | Cellular Uptake (MFINF, %) (HeLa cells; [1]): 235%; Improvement of cytosolic entry efficiency relative to BH4 (HeLa cells; HeLa cells): 3 fold |
| 249 (FFFRRRQ; cyclic) [Peptide 249] | 231 ± 43 |  |
| 282 (Ac-[Dap][dF]FR[dR]R[dR]D; lactam 1-8 (inferred); not fully specified; printed as Ac-(Dap-fFRrRrD)) [Peptide 282] | 126 ± 33 |  |
| 262 (RRFFRRRQ; cyclic) [Peptide 262] | 115 ± 20 |  |
| 256 (FRRFRFQ; cyclic) [Peptide 256] | 101 ± 16 |  |
| 240 (cyclo(G[2Nal]RRRQ); SMILES N=C(N)NCCC[C@@H]1NC(=O)[C@H](Cc2ccc3ccccc3c2)NC(=O)CNC(=O)[C@H](CCC(N)=O)NC(=O)[C@H](CCCNC(=N)N)NC(=O)[C@H](CCCNC(=N)N)NC1=O) [Peptide 240] | 49 ± 5 |  |
| cyclo(D-A-F-Φ-r-p-P-R-R-F-D-A-D-Q)-miniPEG-K(NF) (cyclo(DAF[2Nal][dR][dP]PRRFDADQ); not fully specified (residue 14); printed as cyclo(D-A-F-Φ-r-p-P-R-R-F-D-A-D-Q)-miniPEG-K(NF)) [BH10] |  | Cellular Uptake (MFINF, %) (HeLa cells; [1]): 44 ± 19%; Cellular entry / delivery efficiency (in words) (HeLa cells; HeLa cells): lowest delivery efficiency |
| 237 (FRFRRQ; cyclic) [Peptide 237] | 15 ± 3 |  |
| 261 (RFFRRRRQ; cyclic) [Peptide 261] | 104 ± 5 |  |
| 253 (FFRFRRQ; cyclic) [Peptide 253] | 106 ± 22 |  |
| cyclo(FΦrpPRRFAQ)-miniPEG-K(NF) (cyclo(F[2Nal][dR][dP]PRRFAQ); not fully specified (residue 10); printed as cyclo(FΦrpPRRFAQ)-miniPEG-K(NF)) [BHT2] |  | Cellular Uptake (MFI^NF, %) of β-hairpin transporters (HeLa cells; [2]): 15% and 15 ± 2% |
| 260 (FFFRRRRQ; cyclic) [Peptide 260] | 122 ± 20 |  |
| 239 (FRRRFQ; cyclic) [Peptide 239] | 25 ± 4 |  |
| 271 (cyclo([Phe(4-F)][Phe(4-F)]RRRRQ); SMILES N=C(N)NCCC[C@@H]1NC(=O)[C@H](CCCNC(=N)N)NC(=O)[C@H](CCCNC(=N)N)NC(=O)[C@H](Cc2ccc(F)cc2)NC(=O)[C@H](Cc2ccc(F)cc2)NC(=O)[C@H](CCC(N)=O)NC(=O)[C@H](CCCNC(=N)N)NC1=O) [Peptide 271] | 165 ± 22 |  |
| 259 (cyclo(G[2Nal]RRRRQ); SMILES N=C(N)NCCC[C@@H]1NC(=O)[C@H](Cc2ccc3ccccc3c2)NC(=O)CNC(=O)[C@H](CCC(N)=O)NC(=O)[C@H](CCCNC(=N)N)NC(=O)[C@H](CCCNC(=N)N)NC(=O)[C@H](CCCNC(=N)N)NC1=O) [Peptide 259] | 55 ± 5 |  |
| 267 (FRRFFRRQ; cyclic) [Peptide 267] | 127 ± 22 |  |
| 250 (FFRRRFQ; cyclic) [Peptide 250] | 158 ± 21 |  |
| cyclo(f-Φ-R-r-R-r-Q)-miniPEG-K(NF) (cyclo([dF][2Nal]R[dR]R[dR]Q); not fully specified (residue 7); printed as cyclo(f-Φ-R-r-R-r-Q)-miniPEG-K(NF)) [CPP9, reference compound] |  | Cellular Uptake (MFI^NF, %), cytosolic entry efficiency (HeLa cells; HeLa cells, 5 μM NF-labeled peptide, 2 h, DMEM with 10% FBS and 1% ABS, relative to CPP9 (100%)): 100%; Cellular Uptake (MFI^NF, %) of β-hairpin transporters (HeLa cells; [2]): 100% |
| cyclo(A-E-T-G-E-F-L-F-Φ-r-p-P-R-R-F-L-Q)-miniPEG-K(NF) (cyclo(AETGEFLF[2Nal][dR][dP]PRRFLQ); not fully specified (residue 17); printed as cyclo(A-E-T-G-E-F-L-F-Φ-r-p-P-R-R-F-L-Q)-miniPEG-K(NF)) [BH12] |  | Cytosolic entry efficiency, fold higher than CPP1 (HeLa cells; HeLa cells): 5.8 fold; Cellular Uptake (MFINF, %) (HeLa cells; [1]): 575 ± 239% |
| 131 (cyclo(F[2Nal]RRRRQ); SMILES N=C(N)NCCC[C@@H]1NC(=O)[C@H](CCCNC(=N)N)NC(=O)[C@H](CCCNC(=N)N)NC(=O)[C@H](Cc2ccc3ccccc3c2)NC(=O)[C@H](Cc2ccccc2)NC(=O)[C@H](CCC(N)=O)NC(=O)[C@H](CCCNC(=N)N)NC1=O) [Peptide 131] | 100 ± 6 |  |
| 245 (FRRRFRQ; cyclic) [Peptide 245] | 20 ± 3 |  |
| cyclo(A-A-F-Φ-R-p-P-R-R-F-A-A-A-Q)-miniPEG-K(NF) (cyclo(AAF[2Nal]R[dP]PRRFAAAQ); not fully specified (residue 14); printed as cyclo(A-A-F-Φ-R-p-P-R-R-F-A-A-A-Q)-miniPEG-K(NF)) [BH4] |  | Cellular Uptake (MFINF, %) (HeLa cells; [1]): 73 ± 6%; Cellular entry / delivery efficiency (in words) (HeLa cells; HeLa cells): taken up most efficiently |
| 265 (FFRRFRRQ; cyclic) [Peptide 265] | 46 ± 2 |  |
| 273 (cyclo([dF]F[dF][dR]R[dR]Q); SMILES N=C(N)NCCC[C@@H]1NC(=O)[C@@H](CCCNC(=N)N)NC(=O)[C@@H](Cc2ccccc2)NC(=O)[C@H](Cc2ccccc2)NC(=O)[C@@H](Cc2ccccc2)NC(=O)[C@H](CCC(N)=O)NC(=O)[C@@H](CCCNC(=N)N)NC1=O) [Peptide 273] | 463 ± 94 |  |
